In assay [1] the target is T1, HCV genotype 1b (BK) NS3 modified enzyme with a R155K mutation (Hepatitis C virus genotype 1b, UniProt P26663, R1181K).
T1 construct: HCV genotype 1b (BK) NS3 modified enzyme
The assay can be described thus: HCV NS3 protease time-resolved fluorescence (TRF) assay, genotype 1b R155K. Format: biochemical. As to conditions: Ki 1b R155K, genotype 1b (BK) NS3 R155K; single value. The gist of the method: (§1)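 Assay buffer: 50 mM HEPES pH 7.5, 150 mM NaCl, 0.1% PEG 8000, 0.15% Triton X-100. Ten-minute enzyme–inhibitor preincubation; substrate at 25 nM final; 6 h reaction, room temperature; signal/background set at 5-20 by enzyme amount.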

Assay [2] addresses HCV NS3 protease genotype 3a (3A-1) (Hepatitis C virus genotype 3a, UniProt Q81258). The assay can be described thus: HCV NS3 protease time-resolved fluorescence (TRF) assay, genotype 3a. Format: biochemical. The conditions noted are these: Ki 3a. The gist of the method: as §1

With `C=C[C@@H]1C[C@]1(NC(=O)[C@@H]1C[C@@H]2CN1C(=O)[C@H](C1CCCC1)NC(=O)O[C@@H]1CCC[C@H]1CC/C=C/Cc1c(nc3ccccc3c1OCC(F)(F)CO)O2)C(=O)NS(=O)(=O)C1CC1` [Example 73, (3aR,7S,10S,12R,21E,24aS)-7-cyclopentyl-N-{(1R,2S)-1-[(cyclopropylsulfonyl)carbamoyl]-2-ethenylcyclopropyl}-19-(2,2-difluoro-3-hydroxypropoxy)-5,8-dioxo-1,2,3,3a,5,6,7,8,11,12,20,23,24,24a-tetradecahydro-10H-9,12-methanocyclopenta[18,19][1,10,3,6]dioxadiazacyclononadecino[11,12-b]quinoline-10-carboxamide], the Ki in assay [1] is 0.14 nM; in assay [2] it was 2.5 nM.
Taken in the same sequence, the figures for `C=C[C@@H]1C[C@]1(NC(=O)[C@@H]1C[C@@H]2CN1C(=O)[C@H](C1CCCC1)NC(=O)O[C@@H]1CCC[C@H]1CC/C=C/Cc1c(nc3ccccc3c1OCCCOC(=O)CN(C)C)O2)C(=O)NS(=O)(=O)C1CC1` [Example 74] were 0.1 nM and 1.3 nM.
Taken in the same sequence, the figures for `C=C[C@@H]1C[C@]1(NC(=O)[C@@H]1C[C@@H]2CN1C(=O)[C@H](C(C)(C)C)NC(=O)O[C@@H]1CCC[C@H]1CC/C=C/Cc1c(nc3ccccc3c1OCCN1CCCCC1)O2)C(=O)NS(=O)(=O)C1CC1` [Example 75, (3aR,7S,10S,12R,21E,24aS)-7-tert-butyl-N-{(1R,2S)-1-[(cyclopropylsulfonyl)carbamoyl]-2-ethenylcyclopropyl}-5,8-dioxo-19-[2-(piperidin-1-yl)ethoxy]-1,2,3,3a,5,6,7,8,11,12,20,23,24,24a-tetradecahydro-10H-9,12-methanocyclopenta[18,19][1,10,3,6]dioxadiazacyclononadecino[11,12-b]quinoline-10-carboxamide] were 0.28 nM and 2.3 nM.
Regarding `C=CC1C[C@]1(NC(=O)[C@@H]1C[C@@H]2CN1C(=O)[C@H](C1CCCC1)NC(=O)O[C@@H]1CCC[C@H]1CC/C=C/Cc1c(nc3ccccc3c1OCCN1C(=O)CCC1=O)O2)C(=O)NS(=O)(=O)C1CC1` (stereo partly drawn) [Example 76, (3aR,7S,10S,12R,21E,24a)-7-cyclo pentyl-N-{(1R,2S)-1-[(cyclopropylsulfonyl)carbamoyl]-2-ethenylcyclopropyl}-19-[2-(2,5-dioxopyrrolidin-1-yl)ethoxy]-5,8-dioxo-1,2,3,3a,5,6,7,8,11,12,20,23,24,24a-tetradeca hydro-10H-9,12-methanocyclopenta[18,19][1,10,3,6] dioxadiazacyclononadecino[11,12-b] quinoline-10-carboxamide], the values for the Ki in assay [1] and in assay [2] were 0.09 nM and 0.71 nM, respectively.
Take `C=CC1C[C@]1(NC(=O)[C@@H]1C[C@@H]2CN1C(=O)[C@H](C1CCCC1)NC(=O)O[C@@H]1CCC[C@H]1CC/C=C/Cc1c(nc3ccccc3c1OCCCN(C)C)O2)C(=O)NS(=O)(=O)C1CC1` (stereo partly drawn) [Example 77, (3aR,7S,10S,12R,21E,24aS)-7-cyclo pentyl-N-{(1R,2S)-1-[(cyclopropylsulfonyl)carbamoyl]-2-ethenylcyclopropyl}-19-[3-(dimethylamino)propoxy]-5,8-dioxo-1,2,3,3a,5,6,7,8,11,12,20,23,24, 24a-tetradecahydro-10H-9,12-methano cyclopenta[18,19][1,10,3,6] dioxadiazacyclo-nonadecino[11,12-b]quinoline-10-carboxamide]: the values for the Ki in assay [1] and in assay [2] were 0.09 nM and 0.72 nM, respectively.
The corresponding values for `C=C[C@@H]1C[C@]1(NC(=O)[C@@H]1C[C@@H]2CN1C(=O)[C@H](C1CCCC1)NC(=O)O[C@@H]1CCC[C@H]1CC/C=C/Cc1c(nc3ccccc3c1OCCCN1CCCC1=O)O2)C(=O)NS(=O)(=O)C1CC1` [Example 78, (3aR,7S,10S,12R,21E,24aS)-7-cyclo pentyl-N-{(1R,2S)-1-[(cyclopropylsulfonyl)carbamoyl]-2-ethenylcyclopropyl}-5,8-dioxo-19-[3-(2-oxopyrrolidin-1-yl)propoxy]-1,2,3,3a,5,6,7,8,11,12,20,23,24,24a-tetradecahydro-10H-9,12-methano-cyclopenta[18,19][1,10,3,6]dioxa diazacyclonona decino[11,12-b] quinoline-10-carboxamide] are 0.08 nM and 0.54 nM.
With `C=C[C@@H]1C[C@]1(NC(=O)[C@@H]1C[C@@H]2CN1C(=O)[C@H](C1CCCC1)NC(=O)O[C@@H]1CCC[C@H]1CC/C=C/Cc1c(nc3ccccc3c1OCCN1CCCC1=O)O2)C(=O)NS(=O)(=O)C1CC1` [Example 79, (3aR,7S,10S,12R,21E,24aS)-7-cyclo pentyl-N-{(1R,2S)-1-[(cyclopropylsulfonyl)carbamoyl]-2-ethenylcyclopropyl}-5,8-dioxo-19-[2-(2-oxopyrrolidin-1-yl)ethoxy]-1,2,3,3a,5,6,7,8,11,12,20,23,24,24a-tetradeca hydro-10H-9,12-methanocyclopenta[18,19][1,10,3,6] dioxadiaza cyclononadecino[11,12-b]quinoline-10-carboxamide], the Ki in assay [1] worked out at 0.06 nM; in assay [2], 1.8 nM.
Taken in the same sequence, the figures for `C=CC1C[C@]1(NC(=O)[C@@H]1C[C@@H]2CN1C(=O)[C@H](C1CCCC1)NC(=O)O[C@@H]1CCC[C@H]1CC/C=C/Cc1c(nc3ccccc3c1OCCN1CCCC1)O2)C(=O)NS(=O)(=O)C1CC1` (stereo partly drawn) [Example 80, (3aR,7S,10S,12R,21E,24aS)-7-cyclo pentyl-N-{(1R,2S)-1-[(cyclopropylsulfonyl)carbamoyl]-2-ethenylcyclopropyl}-5,8-dioxo-19-[2-(pyrrolidin-1-yl)ethoxy]-1,2,3,3a,5,6,7,7,8,11,12,20,23,24,24a-tetradecahydro-10H-9,12-methanocyclopenta[18,19] [1,10,3,6]dioxa diazacyclononadecino[11,12-b] quinoline-10-carboxamide] were 0.2 nM and 2.4 nM.
As for `C=CC1C[C@]1(NC(=O)[C@@H]1C[C@@H]2CN1C(=O)[C@H](C1CCCC1)NC(=O)O[C@@H]1CCC[C@H]1CC/C=C/Cc1c(nc3ccccc3c1OCCN1CCCCC1)O2)C(=O)NS(=O)(=O)C1CC1` (some centres unmarked) [Example 81], the inhibitory constant (Ki) in assay [1] amounted to 0.29 nM; in assay [2] it was 4.6 nM.
Regarding `C=C[C@@H]1C[C@]1(NC(=O)[C@@H]1C[C@@H]2CN1C(=O)[C@H](C1CCCC1)NC(=O)O[C@@H]1CCC[C@H]1CC/C=C/Cc1c(nc3ccccc3c1OCCN(C)C)O2)C(=O)NS(=O)(=O)C1CC1` [Example 82, (3aR,7S,10S,12R,21E,24aS)-7-cyclo pentyl-N-{(1R,2S)-1-[(cyclopropylsulfonyl)carbamoyl]-2-ethenylcyclopropyl}-19-[2-(dimethylamino)ethoxy]-5,8-dioxo-1,2,3,3a,5,6,7,8,11,12,20,23, 24,24a-tetradecahydro-10H-9,12-methanocyclopenta[18,19] [1,10,3,6]dioxadiazacyclononadecino [11,12-b]quinoline-10-carboxamide], the figures for the Ki in assay [1] and in assay [2] were 0.18 nM and 2.5 nM, respectively.
Consider `C=C[C@@H]1C[C@]1(NC(=O)[C@@H]1C[C@@H]2CN1C(=O)[C@H](C1CCCC1)NC(=O)O[C@@H]1CCC[C@H]1CC/C=C/Cc1c(nc3ccccc3c1OCCCN1CCCC(F)(F)C1)O2)C(=O)NS(=O)(=O)C1(C)CC1` [Example 83, (3aR,7S,10S,12R,21E,24aS)-7-cyclo pentyl-19-[3-(3,3-difluoropiperidin-1-yl)propoxy]-N-[(1R,s)-2-ethenyl-1-{[(1-methylcyclopropyl)sulfonyl]carbamoyl}cyclopropyl]-5,8-dioxo-1,2,3,3a,5,6,7,8,11,12,20,23,24,24a-tetradecahydro-10H-9,12-methanocyclopenta[18,19] [1,10,3,6]dioxadiazacyclononadecino [11,12-b]quinoline-10-carboxamide], for which the results for the Ki in assay [1] and in assay [2] were 1.1 nM and 23 nM, respectively.
In the case of `C=C[C@@H]1C[C@]1(NC(=O)[C@@H]1C[C@@H]2CN1C(=O)[C@H](C1CCCC1)NC(=O)O[C@@H]1CCC[C@H]1CC/C=C/Cc1c(nc3ccccc3c1OCCCNC(=O)OC(C)(C)C)O2)C(=O)NS(=O)(=O)C1CC1` [Example 84, tert-butyl (3-{[(3aR,7S,10S,12R,21E,24aS)-7-cyclopentyl-10-({(1R,2S)-1-[(cyclopropylsulfonyl)carbamoyl]-2-ethenylcyclopropyl}carbamoyl)-5,8-dioxo-1,2,3,3a,5,6,7,8,11,12, 20,23,24,24a-tetradecahydro-10H-9,12-methanocyclopenta[18,19][1,10,3,6]dioxadiazacyclononadecino [11,12-b]quinolin-19-yl]oxy}propyl)carbamate], the Ki worked out at 0.24 nM in assay [1] and 7.2 nM in assay [2].
For `C=CC1C[C@]1(NC(=O)[C@@H]1C[C@@H]2CN1C(=O)[C@H](C1CCCC1)NC(=O)O[C@@H]1CCC[C@H]1CC/C=C/Cc1c(nc3ccccc3c1OCCCN1CCC1)O2)C(=O)NS(=O)(=O)C1(C)CC1` (stereo partly drawn) [Example 85, (3aR,7S,10S,12R,21E,24aS)-19-[3-(azetidin-1-yl)propoxy]-7-cyclopentyl-N-[(1R,2S)-2-ethenyl-1-{[(1-methylcyclopropyl)sulfonyl]carbamoyl}cyclopropyl]-5,8-dioxo-1,2,3,3a,5,6,7,8,11,12,20,23,24,24a-tetra deca hydro-10H-9,12-methanocyclopenta [18,19][1,10,3,6]dioxa-diazacyclononadecino[11,12-b] quinoline-10-carboxamide], the values for the Ki in assay [1] and in assay [2] were 0.11 nM and 0.56 nM, respectively.

As a reminder, the Ki is the dissociation constant of the complex between target and ligand, obtained from inhibition or displacement. A low value points to tighter binding.

The values above are taken from patent publication US9328138B2 (priority 2011, dated 2016).
